Data reported in US20140228540A1, “POLYPEPTIDES THAT BIND TISSUE INHIBITOR OF METALLOPROTEINASE TYPE THREE (TIMP-3), COMPOSITIONS AND METHODS” (Amgen Inc., priority 2009, published 2014).
Like-named read-outs stand apart in the source and are kept apart here.

T1: HuTIMP-3 (Homo sapiens, UniProt P35625)
T1 sequence (P35625 24-211): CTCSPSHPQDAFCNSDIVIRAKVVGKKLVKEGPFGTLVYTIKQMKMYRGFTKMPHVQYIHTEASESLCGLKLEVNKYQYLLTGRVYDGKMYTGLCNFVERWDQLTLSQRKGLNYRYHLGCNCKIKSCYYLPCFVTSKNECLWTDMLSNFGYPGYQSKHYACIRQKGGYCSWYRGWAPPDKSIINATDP

T2: MuTIMP-3 (Mus musculus, UniProt P39876)
T2 sequence (P39876 24-211): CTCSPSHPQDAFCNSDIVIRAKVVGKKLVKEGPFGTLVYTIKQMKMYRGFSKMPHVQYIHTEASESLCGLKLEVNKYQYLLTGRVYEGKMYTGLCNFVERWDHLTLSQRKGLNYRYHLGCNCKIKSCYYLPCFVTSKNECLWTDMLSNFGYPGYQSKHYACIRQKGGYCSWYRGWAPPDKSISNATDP


How the values were obtained:
[1] = target: T1, HuTIMP-3; assay: Directly coated TIMP-3 binding ELISA (human); conditions: human TIMP-3; for EC50: direct
[2] = test system: biotinylated recombinant human or mouse TIMP-3; assay: TIMP-3 AlphaScreen binding assay
Protocol: Peptides were also evaluated by AlphaScreen® (Amplified Luminescent Proximity Homogeneous Assay; PerkinElmer, Waltham, Mass.) a very sensitive non-radioactive homogeneous assay technology that allows the screening of a large range of biological interactions and activities, substantially according to the manufacturer's instructions. Briefly, all dilutions are made in AlphaScreen® Buffer: [40 mM HEPES pH 7.5, 100 mM NaCl, 1 mM CaCl2, 0.1% BSA, 0.05% Tween-20]. The LRP-1 peptides are titrated in a separate polypropylene 96-well plate (Falcon) starting at 4 microM concentration and then diluted serially 3-fold for 12-points, with the last point buffer only. First 2 microL/well of protein titration curve is added to white, small volume, 384-well assay plate (Greiner Bio-One, Stonehouse, UK) in duplicate. Next, 2 microL of biotinylated (AFS, in-house conjmicroGation) recombinant human or mouse TIMP-3, is added at 12 nM (or 3 nM final assay concentration) to the assay plate. Lastly, in subdued light 4 microL of a mixture of streptavidin donor beads, anti-mouse IgG acceptor beads (PerkinElmer) both diluted to 20 microG/mL (10 microG/mL final assay concentration) and 2 nM (1 nM final concentration) rat-anti-HA (clone3F10)-HRP (Roche Diagnostics) is added to the plates. Plates containing 8 microL final assay volume are covered with TopSeal A (to prevent evaporation), spun quickly at 1000 rpm, and incubated overnight (covered with foil to prevent light exposure) before reading on Fusion plate reader (PerkinElmer) using AlphaScreen® parameters (excitation 680 nm and emission 520-620 nm). Data is analyzed using GraphPad Prism 4.01 software. Binding to TIMP-3 is reported as total signal (cps).

[3] = target: T2, MuTIMP-3; assay: Directly coated TIMP-3 binding ELISA (mouse); conditions: mouse TIMP-3; for EC50: direct
[4] = target: T1, HuTIMP-3; assay: Indirect binding ELISA with TIMP-3 presented via anti-TIMP-3 neutralizing antibody; conditions: human TIMP-3
Protocol: After incubation, the plate contents are discarded and 250 microL/well of blocking buffer (1% BSA, TBS [pH 7.5], 1 mM CaCl2) is added to the plate which is incubated with shaking for 1 hour at room temperature. The plate is then washed three times with 200 microL/well with wash buffer 1 (TBS [pH 7.5], 1 mM CaCl2) followed by the addition of 100 microL of 20 nM recombinant human TIMP-3. The plate is incubated at room temperature for 1 hour. The LRP-1 peptides are titrated as described previously, and 100 microL/well of the diluted LRP-1 peptide titration is added to the TIMP-3 coated plate and allowed to bind for 1.5 hour at room temperature with shaking. After incubation, the plate is washed and the ELISA performed substantially as described previously for the direct binding ELISA.

[5] = test system: HTB-94 cells; assay: Accumulation of TIMP-3 in the medium of cultured HTB-94 cells; format: cell-based
Protocol: This example describes an assay to evaluate the accumulation of TIMP-3 in the medium of cultured cells. HTB-94™ cells (a chondrocytic cell line available from the American Type Culture Collection, Manassas, Va.) are plated to 24-well tissue culture plates at 1×10̂5 cells per well in 1 ml growth medium (RPM11640, 10% FBS, 1% PSG), and incubated at 37 C, 5% CO2 overnight. The cells are then washed once with PBS, and the wells are replenished with 250 microL serum-free medium (RPM11640, 1% PSG; designated SF in the tables below) to which is added the polypeptide being tested or a control (for example medium containing heparin, 1 mg/ml). Proteins to be tested are diluted to appropriate concentrations, for example as shown in the Tables below, and added to the cells. Cells are then incubated at 37 C, 5% CO2 for two additional days, day 2 conditioned medium (CM) samples are collected and clarified by centrifugation (i.e., for 5 minutes at 10K RPM) and the supernatant fluid is collected and stored at −20 C until assayed. Analysis is done on 100 microL CM samples, either by Western blot or by using a standard human TIMP-3 ELISA as per the manufacturer's protocol (R&D Systems Inc., Minneapolis, Minn.).

[6] = target: TIMP-3; assay: Binding ELISA of LRP-1 peptides to TIMP-3 (Table 2; format and species not specified); set-up: species or system human or mouse
[7] = test system: A549 cells; assay: Binding and internalization of exogenous TIMP-3 by confocal microscopy; format: cell-based, human; conditions: in the presence of heparin
Protocol: This example describes the internalization of exogenous TIMP-3 as examined by confocal microscopy. A549 cells (a continuous tumor-cell line from a human lung carcinoma with properties of type II alveolar epithelial cells, either wild-type or A549 cells lacking the LRP-1 gene) were incubated typically with 1 microG/ml TIMP-3 for 30 minutes at 4 degrees, with or without various pre-treatments (including heparin), then washed, fixed and stained with a fluorescently labeled anti-TIMP-3 antibody, or washed and then incubated further at 4 or 37 degrees before fixation and staining. Cells were also assayed for the accumulation of TIMP-3 in the culture medium, by Western blot or ELISA, substantially as described herein.

[8] = test system: cultured chondrocytic cells; conditions: cited from earlier work
[9] = Assay 2, read-out: Binding ELISA EC50 (nm) Assay 2

Row | Molecule | AlphaScreen total signal (cps) Assay 1 [2] | AlphaScreen total signal (cps) Assay 2 [2] | EC50 [1] [µM] | TIMP-3 (ng/ml) in conditioned medium ([5]; Table 6, peptides 2 microM) [ng/mL] | TIMP-3 (ng/ml) in conditioned medium ([5]; Table 7, peptides 2 microM) [ng/mL] | further results
1 | LA4: LRP-1 peptide monomer, amino acids 895-930 | 2,200 cps | 2,000 cps |  | 1.07 |  | EC50 in TIMP-3 Binding ELISA, Direct HuTIMP-3 [1]: no binding; EC50 in TIMP-3 Binding ELISA, Direct MuTIMP-3 [3]: no binding; EC50 in TIMP-3 Binding ELISA, Indirect HuTIMP-3 [4]: no binding
2 | LA5-6: LRP-1 peptide multimer, amino acids 931-1014 | 6,000 cps | 4,000 cps | > 1 |  | 2.38 | 
3 | LA7: LRP-1 peptide monomer, amino acids 1015- (end not printed) | 2,200 cps |  | > 1 | 0.90 |  | EC50 [3]: > 1 µM; EC50 [4]: > 1 µM
4 | LA8-10: LRP-1 peptide multimer, amino acids 1062- (end not printed) | 110,000 cps | 100,000 cps | > 1 |  | 3.91 | 
5 | LA15: LRP-1 peptide monomer, amino acids 2696- (end not printed) | 2,200 cps | 2,000 cps |  | 1.29 |  | EC50 [3]: > 1 µM
6 | LA28: LRP-1 peptide monomer, amino acids 3613-3653 | 2,200 cps |  | > 1 |  | 0.99 | EC50 [3]: > 1 µM
7 | heparin [reference compound] |  |  |  |  |  | Binding of TIMP-3 to the cell surface [7]: decreased; TIMP-3 (ng/ml) in conditioned medium ([5]; Table 5, heparin control (1 mg/ml per method)): 10.98 ng/mL; TIMP-3 (ng/ml) in conditioned medium ([5]; Table 6, heparin control (1 mg/ml per method)): 14.55 ng/mL; TIMP-3 (ng/ml) in conditioned medium ([5]; Table 7, heparin control (1 mg/ml per method)): 26.15 ng/mL; TIMP-3 (ng/ml) in conditioned medium ([5]; Table 8, heparin control (1 mg/ml per method)): 17.31 ng/mL
8 | RAP: receptor associated protein, a general inhibitor of LRP-1 (protein, UniProt P30533 35-357, looked up) Alpha-2-macroglobulin …: YSREKNQPKPSPKRESGEEFRMEKLNQLWEKAQRLHLPPVRLAELHADLKIQERDELAWKKLKLDGLDEDGEKEARLIRNLNVILAKYGLDGKKDARQVTSNSLSGTQEDGLDDPRLEKLWHKAKTSGKFSGEELDKLWREFLHHKEKVHEYNVLLETLSRTEEIHENVISPSDLSDIKGSVLHSRHTELKEKLRSINQGLDRLRRVSHQGYSTEAEFEEPRVIDLWDLAQSANLTDKELEAFREELKHFEAKIEKHNHYQKQLEIAHEKLRHAESVGDGERVSRSREKHALLEGRTKELGYTVKKHLQDLSGRISRARHNEL |  |  |  |  |  | levels of TIMP-3 in the medium of cultured chondrocytic cells [8]: increases

The next lines start with results.

Row | AlphaScreen total signal (cps) Assay 1 [2] | AlphaScreen total signal (cps) Assay 2 [2] | EC50 [1] [µM] | Molecule | TIMP-3 (ng/ml) in conditioned medium ([5]; Table 6, peptides 2 microM) [ng/mL] | TIMP-3 (ng/ml) in conditioned medium ([5]; Table 7, peptides 2 microM) [ng/mL] | further results
9 | 2,200 cps |  |  | LA19: LRP-1 peptide monomer, amino acids 2858-2903 | 1.06 |  | EC50 [6, 9]: > 10 µM
10 | 2,200 cps |  |  | LA20: LRP-1 peptide monomer, amino acids 2904-2943 (CNASSQFLCSSGRCVAEALLCNGQDDCGDSSDERGCHINE) | 0.96 |  | EC50 [6, 9]: > 10 µM
11 | 3,000 cps |  |  | LA21-23: LRP-1 peptide multimer, amino acids 3334- (end not printed) |  | 4.46 | EC50 ([6]; Assay 1, read-out: Binding ELISA EC50 (nm) Assay 1): 0.243 µM
12 | 2,200 cps |  |  | LA23: LRP-1 peptide monomer, amino acids 3413-3452 | 0.87 |  | EC50 [6, 9]: > 5 µM
